Tests used:
OAT3 = target: T1, OAT3 (Homo sapiens, UniProt Q8TCC7); assay: Uptake in HEK293 cells overexpressing OAT3; assay type: in vitro ADME
T1 sequence (Q8TCC7 1-542): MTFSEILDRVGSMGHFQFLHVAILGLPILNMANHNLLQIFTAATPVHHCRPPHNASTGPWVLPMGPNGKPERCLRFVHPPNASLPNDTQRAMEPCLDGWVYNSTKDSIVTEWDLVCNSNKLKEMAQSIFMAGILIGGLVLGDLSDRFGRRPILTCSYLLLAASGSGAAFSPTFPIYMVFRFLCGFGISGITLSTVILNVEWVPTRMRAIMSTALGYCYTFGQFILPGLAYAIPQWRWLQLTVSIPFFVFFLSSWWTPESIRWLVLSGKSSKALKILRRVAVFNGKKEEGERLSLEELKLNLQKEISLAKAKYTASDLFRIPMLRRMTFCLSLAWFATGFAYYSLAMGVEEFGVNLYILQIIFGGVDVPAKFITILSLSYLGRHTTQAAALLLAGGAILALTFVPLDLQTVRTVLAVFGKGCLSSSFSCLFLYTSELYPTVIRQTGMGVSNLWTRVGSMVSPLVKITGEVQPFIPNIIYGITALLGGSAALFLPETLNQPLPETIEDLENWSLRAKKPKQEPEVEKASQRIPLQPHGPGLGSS

[1] = rat liver microsomes in the presence of NADPH; cited from earlier work
OCT1 = target: T2, OCT1 (Homo sapiens, UniProt O15245); assay: Uptake in HEK293 cells overexpressing OCT1; assay type: in vitro ADME; conditions: OCT1, influx
T2 sequence (O15245 1-554): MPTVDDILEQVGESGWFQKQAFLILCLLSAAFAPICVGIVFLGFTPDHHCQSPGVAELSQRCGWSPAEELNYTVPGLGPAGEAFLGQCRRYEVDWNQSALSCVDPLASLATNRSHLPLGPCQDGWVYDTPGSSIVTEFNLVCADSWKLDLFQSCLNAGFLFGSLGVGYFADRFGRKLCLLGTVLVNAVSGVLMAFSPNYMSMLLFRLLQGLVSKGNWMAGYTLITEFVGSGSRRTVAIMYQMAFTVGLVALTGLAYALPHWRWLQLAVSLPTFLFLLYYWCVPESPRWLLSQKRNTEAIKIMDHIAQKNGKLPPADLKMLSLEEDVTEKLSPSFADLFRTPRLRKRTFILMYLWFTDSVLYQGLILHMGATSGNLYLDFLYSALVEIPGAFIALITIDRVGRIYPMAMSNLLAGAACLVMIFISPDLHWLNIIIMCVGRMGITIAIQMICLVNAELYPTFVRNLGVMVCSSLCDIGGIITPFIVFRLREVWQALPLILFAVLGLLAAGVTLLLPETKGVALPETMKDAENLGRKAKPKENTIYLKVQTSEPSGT

OATP1B3 = target: T3, OATP1B3 (Homo sapiens, UniProt Q9NPD5); assay: Uptake in HEK293 cells overexpressing OATP1B3; assay type: in vitro ADME; conditions: OATP1B3-mediated uptake
T3 sequence (Q9NPD5 1-702): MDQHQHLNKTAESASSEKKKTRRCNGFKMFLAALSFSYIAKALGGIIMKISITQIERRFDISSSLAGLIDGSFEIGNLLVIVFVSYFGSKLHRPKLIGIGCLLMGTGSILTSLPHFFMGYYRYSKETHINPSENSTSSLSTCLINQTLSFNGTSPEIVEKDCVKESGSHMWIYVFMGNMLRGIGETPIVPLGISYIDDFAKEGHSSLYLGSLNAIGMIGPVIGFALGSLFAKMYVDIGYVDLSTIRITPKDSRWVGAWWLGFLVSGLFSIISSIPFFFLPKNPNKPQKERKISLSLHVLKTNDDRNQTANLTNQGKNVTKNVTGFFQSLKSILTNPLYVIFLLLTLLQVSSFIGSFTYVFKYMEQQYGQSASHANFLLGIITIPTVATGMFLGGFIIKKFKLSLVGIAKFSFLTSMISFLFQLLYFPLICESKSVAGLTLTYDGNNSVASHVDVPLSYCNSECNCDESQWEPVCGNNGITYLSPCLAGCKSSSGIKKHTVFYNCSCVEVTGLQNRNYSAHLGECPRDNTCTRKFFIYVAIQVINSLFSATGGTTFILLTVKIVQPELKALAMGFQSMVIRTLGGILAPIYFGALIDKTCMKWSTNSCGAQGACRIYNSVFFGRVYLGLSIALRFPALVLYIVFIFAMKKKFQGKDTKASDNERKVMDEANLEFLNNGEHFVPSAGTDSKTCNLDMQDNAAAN

OCT2 = target: T4, OCT2 (Homo sapiens, UniProt O15244); assay: Uptake in HEK293 cells overexpressing OCT2; assay type: in vitro ADME; conditions: OCT2, influx
T4 sequence (O15244 1-555): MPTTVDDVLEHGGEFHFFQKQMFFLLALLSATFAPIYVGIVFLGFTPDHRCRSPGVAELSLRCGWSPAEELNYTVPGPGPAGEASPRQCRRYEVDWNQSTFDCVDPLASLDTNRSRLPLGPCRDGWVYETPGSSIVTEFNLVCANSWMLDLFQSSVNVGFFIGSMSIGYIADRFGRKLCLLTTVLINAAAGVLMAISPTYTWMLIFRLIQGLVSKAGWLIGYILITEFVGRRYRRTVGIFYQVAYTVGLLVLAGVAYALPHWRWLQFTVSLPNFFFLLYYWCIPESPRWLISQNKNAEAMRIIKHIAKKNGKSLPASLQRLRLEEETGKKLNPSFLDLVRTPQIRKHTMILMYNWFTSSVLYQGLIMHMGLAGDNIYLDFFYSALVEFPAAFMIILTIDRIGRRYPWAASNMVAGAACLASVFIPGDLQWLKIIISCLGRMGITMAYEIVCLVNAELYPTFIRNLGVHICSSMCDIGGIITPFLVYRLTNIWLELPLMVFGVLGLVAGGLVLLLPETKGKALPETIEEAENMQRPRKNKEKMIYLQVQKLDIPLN

SMILES: O=C(O[C@H]1[C@@H]2C=CO[C@@H](O[C@@H]3O[C@H](CO)[C@@H](O)[C@H](O)[C@H]3O)[C@@H]2[C@@]2(CO)O[C@@H]12)c1ccc(O)cc1 [catalposide]
- Clint for OAT3 relative to OATP1B1 (OAT3; OAT3 vs OATP1B1): 31.8 fold
- Clint for OAT3 relative to OATP1B3 (OAT3; OAT3 vs OATP1B3): 32.7 fold
- Stability [1]: remained stable
- Substrate (OCT1): not involved
- Hill coefficient n (OATP1B3): ~1
- Substrate (OCT2): not involved
